Data from patent publication US11903912B2, “Composition for preventing and treating breast cancer including selenopsammaplin A as active ingredients” (Seoul National University R & DB Foundation, priority 2019, dated 2024).

Legend:
Type in all cases: cell-based
[1] = test system: MDA-MB231 human breast cancer cells; assay: SRB cytotoxicity test, MDA-MB231; details: SRB assay, cultured 3 days
Description: (§1) A cytotoxicity test was performed using synthesized selenopsammaplin A and derivatives thereof (Lee S K et al […] Chem Biol Interact 115:215-28).
(§2) The cytotoxicity test was performed on a total of five representative cancer cell lines. The cytotoxicity of each compound was measured using an SRB assay method (human lung cancer cells, A549; human colon cancer cells, HCT116; human breast cancer cells, MDA-MB231; human liver cancer cells, SK-HEP-1; human gastric cancer cells, SNU638).
(§3) Each cell line was sub-cultured once or twice using Roswell Park Memorial Institute (RPMI) medium 1640 (RPMI 1640) or Dulbecco's Modified Eagle's Medium (DMEM) containing 10% fetal bovine serum (FBS) inactivated by heat, 100 units/mL of penicillin, 100 μg/mL of streptomycin, and 250 ng/mL of amphotericin B at 37° C. for 1 week under a 5% CO2 condition. All cells were […] in liquid nitrogen, and then passaged three or more times to be used in the experiment. The effects of compounds on cell growth were measured using a sulforhodamine B (SRB) method (Lee et al (1998) Chemico-Biol Interact 115:215-228).
(§4) Specifically, each human cancer cell line used in the present invention was sub-cultured in an RPMI medium containing 10% FBS, 1% PSF, and the like, and 10 μl of a sample dissolved in 10% DMSO and 190 μl (4-5×10^4 cells/ml) of the cell suspension were added to each well of a 96-well plate and cultured for 3 days. 190 μl of the cell suspension was added to at least 16 wells and cultured for 30 minutes, and used as a zero-day control. The cultured cells were fixed with 10% trichloroacetic acid (TCA) and then stained with an SRB solution, and the staining solution was dissolved with 10 mM Tris-base, and then absorbance at 515 nm was measured. Using the case of culturing in 10% DMSO as a control, cell viability according to each test material treatment was measured using Equation 1 below. Etoposide was used as a positive control. % Viability=(OD(sample)−OD(0-day))/(OD(10% DMSO)−OD(0-day))×100 [Equation 1]
(§5) Assuming that a control not-treated with the sample was set at 100%, the values of sample-treated groups were expressed as percentage with respect to the control, and each test material treatment results were obtained as the mean±SEM of two or three tests. The IC50 value is the concentration of the test material for a 50% survival rate.

[2] = test system: SNU638 human gastric cancer cells; assay: SRB cytotoxicity test, SNU638; details: SRB assay, cultured 3 days
Description: as §1, §2, §3, §4, §5

[3] = test system: SK-HEP-1 human liver cancer cells; assay: SRB cytotoxicity test, SK-HEP-1; details: SRB assay, cultured 3 days
Description: as §1, §2, §3, §4, §5

[4] = test system: HCT116 human colon cancer cells; assay: SRB cytotoxicity test, HCT116; details: SRB assay, cultured 3 days
Description: as §1, §2, §3, §4, §5

[5] = test system: A549 human lung cancer cells; assay: SRB cytotoxicity test, A549; details: SRB assay, cultured 3 days
Description: as §1, §2, §3, §4, §5

[6] = target: T1, DOT1L (Homo sapiens, UniProt Q8TEK3); assay: Inhibition of DOT1L methylation (H3K79) by western blotting; details: breast cancer cell line, FIG. 3
T1 construct: based on the finding that DOT1L was overexpressed in the breast cancer cell line; endogenous in cells
T1 sequence (Q8TEK3 whole entry): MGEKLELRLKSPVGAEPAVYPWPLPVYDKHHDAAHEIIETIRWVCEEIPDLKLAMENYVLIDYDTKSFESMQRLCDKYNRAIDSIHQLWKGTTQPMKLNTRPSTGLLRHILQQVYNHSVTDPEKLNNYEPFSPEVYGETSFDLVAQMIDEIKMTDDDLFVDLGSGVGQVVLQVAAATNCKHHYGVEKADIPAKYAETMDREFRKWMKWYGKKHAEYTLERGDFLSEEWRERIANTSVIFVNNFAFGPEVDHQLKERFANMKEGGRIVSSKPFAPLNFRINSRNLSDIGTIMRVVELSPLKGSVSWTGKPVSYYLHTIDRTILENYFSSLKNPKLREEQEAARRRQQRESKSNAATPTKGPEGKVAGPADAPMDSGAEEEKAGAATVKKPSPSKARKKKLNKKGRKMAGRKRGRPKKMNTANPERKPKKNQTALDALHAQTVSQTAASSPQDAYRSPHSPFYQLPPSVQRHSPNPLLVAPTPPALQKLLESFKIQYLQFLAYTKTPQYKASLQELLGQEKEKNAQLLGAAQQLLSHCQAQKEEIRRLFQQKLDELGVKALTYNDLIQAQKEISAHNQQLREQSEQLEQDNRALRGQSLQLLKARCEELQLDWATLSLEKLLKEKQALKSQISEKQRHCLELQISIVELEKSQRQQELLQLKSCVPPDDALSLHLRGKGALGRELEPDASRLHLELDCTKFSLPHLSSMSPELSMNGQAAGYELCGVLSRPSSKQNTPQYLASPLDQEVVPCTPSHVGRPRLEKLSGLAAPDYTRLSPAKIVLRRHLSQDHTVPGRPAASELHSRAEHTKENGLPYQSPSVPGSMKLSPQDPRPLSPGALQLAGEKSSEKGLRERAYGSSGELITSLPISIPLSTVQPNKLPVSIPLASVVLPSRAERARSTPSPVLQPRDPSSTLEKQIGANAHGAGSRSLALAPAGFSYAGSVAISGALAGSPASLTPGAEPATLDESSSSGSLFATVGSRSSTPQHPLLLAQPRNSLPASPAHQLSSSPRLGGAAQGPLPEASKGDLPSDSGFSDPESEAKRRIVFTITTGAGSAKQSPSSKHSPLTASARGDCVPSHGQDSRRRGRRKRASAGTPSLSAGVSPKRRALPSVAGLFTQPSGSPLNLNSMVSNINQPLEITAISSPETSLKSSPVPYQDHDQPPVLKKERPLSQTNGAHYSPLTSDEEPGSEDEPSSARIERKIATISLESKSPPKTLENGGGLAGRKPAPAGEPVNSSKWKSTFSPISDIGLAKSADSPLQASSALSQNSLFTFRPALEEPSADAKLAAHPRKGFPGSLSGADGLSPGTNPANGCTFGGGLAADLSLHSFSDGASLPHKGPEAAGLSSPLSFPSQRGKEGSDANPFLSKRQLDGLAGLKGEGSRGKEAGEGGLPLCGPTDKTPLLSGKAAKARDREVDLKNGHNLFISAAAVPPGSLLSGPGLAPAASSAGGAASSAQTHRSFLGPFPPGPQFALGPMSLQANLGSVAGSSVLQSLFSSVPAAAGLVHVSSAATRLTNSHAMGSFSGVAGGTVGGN
Source text: As confirmed in Example 1, based on the finding that DOT1L was overexpressed in the breast cancer cell line, the effects of the derivatives of the present invention on the methylation of the histone 3 lysine 79 (H3K79) residue, which is an in-vivo target of DOT1L, were examined by western blotting.

Compound	IC50 ([1]; MDA-MB-231, 72 h) [nM]	IC50 ([2]; SNU-638, 72 h) [nM]	IC50 ([3]; SK-HEP1, 72 h) [nM]	IC50 ([4]; HCT-116, 72 h) [nM]	IC50 ([5]; A549, 72 h) [nM]	IC50 [1] [nM]	IC50 [2] [nM]	IC50 [3] [nM]	IC50 [4] [nM]	IC50 [5] [nM]	inhibitory effect on H3K79 methylation [6]
COc1cc([C@@H]2c3cc4c(cc3[C@@H](O[C@@H]3O[C@@H]5CO[C@@H](C)O[C@H]5[C@H](O)[C@H]3O)[C@H]3COC(=O)[C@H]23)OCO4)cc(OC)c1O [Etoposide, reference compound]	8700	200	400	1200	300						
O=C(NCC[Se][Se]CCNC(=O)/C(Cc1ccc(F)cc1)=N/O)/C(Cc1ccc(F)cc1)=N/O [Compound 4, (2E,2′E)-N,N′-(diselenediylbis(ethane-2,1-diyl))bis(3-(4-fluorophenyl)-2-(hydroxyimino)propanamide)]						130	70	140	110	100	
(2E,2′E)-N,N′-(diselenediylbis(ethane-2,1-diyl))bis(2-(hydroxyimino)-3-(naphthalene-2-yl)propanamide) [Compound 3]						190	270	170	120	380	
(2E,2′E)-N,N′-(diselenediylbis(ethane-2,1-diyl))bis(3-(4-ethoxyphenyl)-2-(hydroxyimino)propanamide) [Compound 9]						200	30	180	70	50	excellent
(2E,2′E)-N,N′-(diselenediylbis(ethane-2,1-diyl))bis(3-(4-benzyloxy)phenyl)-2-(hydroxyimino)propanamide) [Compound 10]						140	410	280	100	140	excellent
(2E,2′E)-N,N′-(diselenediylbis(ethane-2,1-diyl))bis(3-(3-chloro-4-hydroxyphenyl)-2-(hydroxyimino)propanamide) [Compound 13]						170	10	110		20	
O=C(NCC[Se][Se]CCNC(=O)/C(Cc1ccc(Br)cc1)=N/O)/C(Cc1ccc(Br)cc1)=N/O [Compound 8, (2E,2′E)-N,N′-(diselenediylbis(ethane-2,1-diyl))bis(3-(4-bromophenyl)-2-(hydroxyimino)propanamide)]						390	150		170	310	
(2E,2′E)-N,N′-(diselenediylbis(ethane-2,1-diyl))bis(2-(hydroxyimino)-3-(4-nitrophenyl)propanamide) [Compound 11]						90	60	170	90	90	excellent
O=C(NCCSSCCNC(=O)/C(Cc1ccc(O)c(Br)c1)=N/O)/C(Cc1ccc(O)c(Br)c1)=N/O [Psammaplin A]						1310	560	1290	610	1760	
(2E,2′E)-N,N′-(diselenediylbis(ethane-2,1-diyl))bis(3-(4-tert-butyl)phenyl)-2-(hydroxyimino)propanamide) [Compound 12]						100	280	190	130	100	excellent
(2E,2′E)-N,N′-(diselenediylbis(ethane-2,1-diyl))bis(3-(3,4-difluorophenyl)-2-(hydroxyimino)propanamide) [Compound 5]						420	50	270	180	330	
(2E,2′E)-N,N′-(diselenediylbis(ethane-2,1-diyl))bis(3-(4-chlorophenyl)-2-(hydroxyimino)propanamide) [Compound 6]						330	220	330	280	250	
(2E,2′E)-N,N′-(diselenediylbis(ethane-2,1-diyl))bis(3-(3-fluoro-4-hydroxyphenyl)-2-(hydroxyimino)propanamide) [Compound 14]						190	20	130		20	
(2E,2′E)-N,N′-(diselenediylbis(ethane-2,1-diyl))bis(3,4-dichlorophenyl)-2-(hydroxyimino)propanamide) [Compound 7]						250	180	320	520	280	
O=C(NCC[Se][Se]CCNC(=O)/C(Cc1ccc(O)c(Br)c1)=N/O)/C(Cc1ccc(O)c(Br)c1)=N/O [Compound 1, (2E,2′E)-N,N′-(diselenediylbis(ethane-2,1-diyl))bis(3-(3-bromo-4-hydroxyphenyl)-2-(hydroxyimino)propanamide)]						160	20	210		30	excellent
